The source of these data is ChEMBL document CHEMBL1156538, “Microwave-assisted solid phase synthesis, PEGylation, and biological activity studies of glucagon-like peptide-1(7-36) amide” (2008).

Type in all cases: functional
The subject of assay [1] is Mus musculus. Briefly: Decrease in blood glucose level in Kunming mouse at 25 nmol/kg, ip administered 90 mins before 18 mmol/kg, ip glucose injection after 30 mins.
In assay [2] the test system is Mus musculus. Briefly: Decrease in blood glucose level in Kunming mouse at 25 nmol/kg, ip administered 90 mins before 18 mmol/kg, ip glucose injection after 45 mins.
Assay [3] relates to Mus musculus. Briefly: Decrease in blood glucose level in Kunming mouse at 25 nmol/kg, ip administered 90 mins before 18 mmol/kg, ip glucose injection after 60 mins.
Assay [4] relates to Mus musculus. Kind of assay: Decrease in blood glucose level in Kunming mouse at 25 nmol/kg, ip administered simultaneously with glucose at 18 mmol/kg, ip after 15 mins.
The test system of assay [5] is Mus musculus. Kind of assay: Decrease in blood glucose level in Kunming mouse at 25 nmol/kg, ip administered simultaneously with glucose at 18 mmol/kg, ip after 30 mins.
Assay [6] has as its system Mus musculus. Kind of assay: Decrease in blood glucose level in Kunming mouse at 25 nmol/kg, ip administered simultaneously with glucose at 18 mmol/kg, ip after 45 mins.
In assay [7] the test system is Mus musculus. Kind of assay: Decrease in blood glucose level in Kunming mouse at 25 nmol/kg, ip administered simultaneously with glucose at 18 mmol/kg, ip after 60 mins.
The test system of assay [8] is Mus musculus. Kind of assay: Decrease in blood glucose level in Kunming mouse at 25 nmol/kg, ip administered 90 mins before 18 mmol/kg, ip glucose injection after 15 mins.

`CC[C@H](C)[C@H](NC(=O)[C@H](Cc1ccccc1)NC(=O)[C@H](CCC(=O)O)NC(=O)[C@H](CCCCN)NC(=O)[C@H](C)NC(=O)[C@H](C)NC(=O)[C@H](CCC(N)=O)NC(=O)CNC(=O)[C@H](CCC(=O)O)NC(=O)[C@H](CC(C)C)NC(=O)[C@H](Cc1ccc(O)cc1)NC(=O)[C@H](CO)NC(=O)[C@H](CO)NC(=O)[C@@H](NC(=O)[C@H](CC(=O)O)NC(=O)[C@H](CO)NC(=O)[C@@H](NC(=O)[C@H](Cc1ccccc1)NC(=O)[C@@H](NC(=O)CNC(=O)[C@H](CCC(=O)O)NC(=O)CNC(=O)[C@@H](N)Cc1cnc[nH]1)[C@@H](C)O)[C@@H](C)O)C(C)C)C(=O)N[C@@H](C)C(=O)N[C@@H](Cc1c[nH]c2ccccc12)C(=O)N[C@@H](CC(C)C)C(=O)N[C@H](C(=O)N[C@@H](CCCCN)C(=O)NCC(=O)N[C@@H](CCCNC(=N)N)C(N)=O)C(C)C`: the Activity with Mus musculus [1] was determined as 14.67 mmol/L; in the assay with Mus musculus [2], 10.23 mmol/L; in the assay on Mus musculus [3], 9.18 mmol/L; in the assay with Mus musculus [4], 12.98 mmol/L; in the assay with Mus musculus [5] it was 8.27 mmol/L; in the assay on Mus musculus [6] it was 7.7 mmol/L. For the same compound, the Activity in the assay with Mus musculus [7] was determined as 7.18 mmol/L; with Mus musculus [8], 17.92 mmol/L.
